Measurements from PMC11240878, “Synthesis, enzyme inhibition assay, and molecular modeling study of novel pyrazolines linked to 4-methylsulfonylphenyl scaffold: antitumor activity and cell cycle analysis” (RSC Advances, 2024).
Values joined by “and” are separate entries in the source; they are usually repeats but may differ in a detail not shown here. Equal entries are not always repeated.

Key:
[1] = test system: MDA-MB-231; test: cells; details: Homo sapiens, MDA-MB-231, 48 h, read-out: In vitro cytotoxicity IC50
Experimental: (§1) The antitumor experiment was conducted on 59 human tumor cell lines derived from nine different human tissues, following the procedure of the Drug Evaluation Branch at the NCI, Bethesda, MD.[33]

[2] = test system: leukemia HL-60; test: cells; details: Homo sapiens, HL-60, 48 h, read-out: In vitro cytotoxicity IC50
Experimental: as §1

[3] = in vitro; details: human
Experimental: (§2) A normal fibroblast-like fetal lung cell line (WI-38) was used to further investigate the therapeutic safety of the newly synthesized hybrids and evaluate their selective cytotoxicity toward normal and tumor cells.[33,77]
as §1

[4] = test system: WI-38 normal fibroblast cells; test: in vitro; details: ratio of WI38 IC50 to cancer cell IC50 values
Experimental: as §2, §1

[5] = test system: breast adenocarcinoma MCF-7; test: cells; details: Homo sapiens, MCF7, 48 h, read-out: In vitro cytotoxicity IC50, MCF-7; MTT, 48 h drug exposure; mean ± SD of three experiments
[6] = test system: 59 cancer cell lines; test: NCI 59 cancer cell line panel, single dose; format: cell-based, human; details: 10 μM single dose; for MG% (mean growth percent): 59 cell lines
[7] = test system: HL-60(TB); test: NCI single-dose GI%, leukemia; format: cell-based, human; details: 10.0 μM in one dose
[8] = test system: K-562; test: NCI single-dose GI%, leukemia; format: cell-based, human; details: K-562, leukemia; 10.0 μM in one dose
[9] = test system: MOLT-4; test: NCI single-dose GI%, leukemia; format: cell-based, human; details: MOLT-4, leukemia; 10.0 μM in one dose
[10] = test system: RPMI-8226; test: NCI single-dose GI%, leukemia; format: cell-based, human; details: RPMI-8226, leukemia; 10.0 μM in one dose
[11] = test system: A549/ATCC; test: NCI single-dose GI%, NSC lung; format: cell-based, human; details: 10.0 μM in one dose
[12] = test system: EKVX; test: NCI single-dose GI%, NSC lung; format: cell-based, human; details: 10.0 μM in one dose
[13] = test system: HOP-62; test: NCI single-dose GI%, NSC lung; format: cell-based, human; details: HOP-62, NSC lung; 10.0 μM in one dose
[14] = test system: NCI-H226; test: NCI single-dose GI%, NSC lung; format: cell-based, human; details: 10.0 μM in one dose
[15] = test system: NCI-H522; test: NCI single-dose GI%, NSC lung; format: cell-based, human; details: 10.0 μM in one dose
[16] = test system: HCT-116; test: NCI single-dose GI%, colon; format: cell-based, human; details: HCT-116, colon; 10.0 μM in one dose
[17] = test system: HT29; test: NCI single-dose GI%, colon; format: cell-based, human; details: 10.0 μM in one dose
[18] = test system: SNB-75; test: NCI single-dose GI%, CNS; format: cell-based, human; details: SNB-75, CNS; 10.0 μM in one dose
[19] = test system: UACC-62; test: NCI single-dose GI%, melanoma; format: cell-based, human; details: UACC-62, melanoma; 10.0 μM in one dose
[20] = test system: SK-OV-3; test: NCI single-dose GI%, ovarian; format: cell-based, human; details: SK-OV-3, ovarian; 10.0 μM in one dose
[21] = test system: CAKI-1; test: NCI single-dose GI%, renal; format: cell-based, human; details: CAKI-1, renal; 10.0 μM in one dose
[22] = test system: UO-31; test: NCI single-dose GI%, renal; format: cell-based, human; details: UO-31, renal; 10.0 μM in one dose
[23] = test system: PC-3; test: NCI single-dose GI%, prostate; format: cell-based, human; details: PC-3, prostate; 10.0 μM in one dose
[24] = test system: MCF7; test: NCI single-dose GI%, breast; format: cell-based, human; details: 10.0 μM in one dose
[25] = test system: MDA-MB-231/ATCC; test: NCI single-dose GI%, breast; format: cell-based, human; details: 10.0 μM in one dose
[26] = test system: BT-549; test: NCI single-dose GI%, breast; format: cell-based, human; details: BT-549, breast; 10.0 μM in one dose
[27] = test system: T-47D; test: NCI single-dose GI%, breast; format: cell-based, human; details: 10.0 μM in one dose
[28] = test system: MDA-MB-468; test: NCI single-dose GI%, breast; format: cell-based, human; details: MDA-MB-468, breast; 10.0 μM in one dose
[29] = test system: UACC-257; test: NCI single-dose GI%, melanoma; format: cell-based, human; details: UACC-257, melanoma; 10.0 μM in one dose
[30] = test system: SK-MEL-5; test: NCI single-dose GI%, melanoma; format: cell-based, human; details: SK-MEL-5, melanoma; 10.0 μM in one dose
[31] = test system: SR; test: NCI single-dose GI%, leukemia; format: cell-based, human; details: 10.0 μM in one dose

SMILES: CN(C)C/C=C/C(=O)Nc1cc2c(Nc3ccc(F)c(Cl)c3)ncnc2cc1O[C@H]1CCOC1 [Afatinib, reference compound]
- IC50 [1]: 8.05 ± 0.72 µM
- IC50 [2]: 6.5 ± 0.77 µM
- IC50 at 48 h [3]: 44 ± 1.9 µM
- Mean tumor selectivity index (WI38/HL60, MCF7, and MDA-MB-231) [4]: 5.93
- IC50 [5]: 7.91 ± 0.66 µM

SMILES: CS(=O)(=O)c1ccc(C(=O)N2N=C(c3ccccc3)CC2c2ccc(Cl)cc2)cc1 (centres unmarked) [Compound 18b, (5-(4-Chlorophenyl)-3-phenyl-4,5-dihydro-1H-pyrazol-1-yl)(4-(methylsulfonyl)phenyl)methanone]
- PCE (positive cytotoxic effect: ratio of cell lines with growth inhibition >10% to total cell lines) [6]: 22/59
- MG% (mean growth percent) [6]: 92.03%
- GI% [7]: 22%
- GI% [8]: 32%
- GI% [9]: 17%
- GI% [10]: 11%
- GI% [11]: 13%
- GI% [12]: 21%
- GI% [13]: 29%
- GI% [14]: 15%
- GI% [15]: 27%
- GI% [16]: 26%
- GI% [17]: 13%
- GI% [18]: 13%
- GI% [19]: 14%
- GI% [20]: 26%
- GI% [21]: 18%
- GI% [22]: 32%
- GI% [23]: 22%
- GI% [24]: 13%
- GI% [25]: 11%
- GI% [26]: 14%
- GI% [27]: 31%
- GI% [28]: 12%
- melting point: 321 to 323 °C

SMILES: CS(=O)(=O)c1ccc(C(=O)N2N=C(c3ccc(F)cc3)CC2c2ccc(F)cc2)cc1 (centres unmarked) [Compound 18e, (3,5-Bis(4-fluorophenyl)-4,5-dihydro-1H-pyrazol-1-yl)(4-(methylsulfonyl)phenyl)methanone]
- PCE (positive cytotoxic effect: ratio of cell lines with growth inhibition >10% to total cell lines) [6]: 15/59
- MG% (mean growth percent) [6]: 94.18%
- GI% [7]: 48%
- GI% [8]: 29%
- GI% [9]: 35%
- GI% [10]: 12%
- GI% [12]: 12%
- GI% [13]: 14%
- GI% [14]: 12%
- GI% [15]: 15%
- GI% [16]: 17%
- GI% [18]: 18%
- GI% [21]: 17%
- GI% [22]: 22%
- GI% [23]: 15%
- GI% [24]: 13%
- GI% [27]: 17%
- melting point: 330 to 333 °C

SMILES: COc1ccccc1C1CC(c2ccccc2)=NN1C(=O)c1ccc(S(C)(=O)=O)cc1 (centres unmarked) [Compound 18i, (5-(2-Methoxyphenyl)-3-phenyl-4,5-dihydro-1H-pyrazol-1-yl)(4-(methylsulfonyl)phenyl)methanone]
- PCE (positive cytotoxic effect: ratio of cell lines with growth inhibition >10% to total cell lines) [6]: ≤ 12/59 and 12/59
- MG% (mean growth percent) [6]: 96.46%
- GI% [7]: 46%
- GI% [9]: 28%
- GI% [11]: 35%
- GI% [12]: 12%
- GI% [13]: 20%
- GI% [14]: 13%
- GI% [15]: 29%
- GI% [17]: 17%
- GI% [29]: 36%
- GI% [21]: 23%
- GI% [22]: 28%
- GI% [27]: 17%
- melting point: 236 to 238 °C

SMILES: COc1ccc(C2CC(c3ccccc3)=NN2C(=O)c2ccc(S(C)(=O)=O)cc2)cc1 (centres unmarked) [Compound 18j, (5-(4-Methoxyphenyl)-3-phenyl-4,5-dihydro-1H-pyrazol-1-yl)(4-(methylsulfonyl)phenyl)methanone]
- PCE (positive cytotoxic effect: ratio of cell lines with growth inhibition >10% to total cell lines) [6]: 10/59
- MG% (mean growth percent) [6]: 97.16%
- GI% [7]: 35%
- GI% [8]: 13%
- GI% [9]: 26%
- GI% [11]: 24%
- GI% [12]: 12%
- GI% [14]: 11%
- GI% [15]: 14%
- GI% [18]: 12%
- GI% [29]: 14%
- GI% [27]: 16%
- melting point: 258 to 260 °C

SMILES: COc1ccc(C2=NN(C(=O)c3ccc(S(C)(=O)=O)cc3)C(c3ccccc3)C2)cc1 (centres unmarked) [Compound 18k, (3-(4-Methoxyphenyl)-5-phenyl-4,5-dihydro-1H-pyrazol-1-yl)(4-(methylsulfonyl)phenyl)methanone]
- PCE (positive cytotoxic effect: ratio of cell lines with growth inhibition >10% to total cell lines) [6]: ≤ 12/59 and 12/59
- MG% (mean growth percent) [6]: 97.49%
- GI% [7]: 18%
- GI% [9]: 27%
- GI% [10]: 11%
- GI% [11]: 13%
- GI% [14]: 14%
- GI% [15]: 35%
- GI% [17]: 20%
- GI% [18]: 11%
- GI% [30]: 14%
- GI% [22]: 15%
- GI% [23]: 21%
- GI% [28]: 16%
- melting point: 226 to 228 °C

SMILES: COc1ccc(C2=NN(C(=O)c3ccc(S(C)(=O)=O)cc3)C(c3ccc(OC)cc3)C2)cc1 (centres unmarked) [Compound 18l, (3,5-Bis(4-methoxyphenyl)-4,5-dihydro-1H-pyrazol-1-yl)(4-(methylsulfonyl)phenyl)methanone]
- PCE (positive cytotoxic effect: ratio of cell lines with growth inhibition >10% to total cell lines) [6]: 14/59
- MG% (mean growth percent) [6]: 95.78%
- GI% [7]: 47%
- GI% [8]: 18%
- GI% [9]: 33%
- GI% [11]: 40%
- GI% [13]: 11%
- GI% [15]: 34%
- GI% [17]: 19%
- GI% [18]: 11%
- GI% [29]: 45%
- GI% [21]: 14%
- GI% [22]: 16%
- GI% [24]: 11%
- GI% [26]: 13%
- GI% [27]: 11%
- melting point: 198 to 200 °C

SMILES: COc1ccc(C2CC(c3ccc(OC)cc3OC)=NN2C(=O)c2ccc(S(C)(=O)=O)cc2)cc1 (centres unmarked) [Compound 18o, (3-(2,4-Dimethoxyphenyl)-5-(4-methoxyphenyl)-4,5-dihydro-1H-pyrazol-1-yl)(4-(methylsulfonyl)phenyl)methanone]
- PCE (positive cytotoxic effect: ratio of cell lines with growth inhibition >10% to total cell lines) [6]: 15/59
- MG% (mean growth percent) [6]: 94.17%
- GI% [7]: 51%
- GI% [8]: 32%
- GI% [9]: 40%
- GI% [31]: 11%
- GI% [11]: 31%
- GI% [13]: 18%
- GI% [15]: 43%
- GI% [17]: 17%
- GI% [18]: 15%
- GI% [30]: 12%
- GI% [29]: 38%
- GI% [21]: 12%
- GI% [22]: 19%
- GI% [26]: 11%
- GI% [27]: 18%
- melting point: 268 to 270 °C

SMILES: COc1cccc2c1C(=O)c1c(O)c3c(c(O)c1C2=O)C[C@@](O)(C(=O)CO)C[C@@H]3O[C@H]1C[C@H](N)[C@H](O)[C@H](C)O1 [DOX, doxorubicin, reference compound]
- IC50 [1]: 5.1 ± 0.31 µM
- IC50 [2]: 6.01 ± 0.2 µM
- IC50 at 48 h [3]: 7.12 ± 0.7 µM
- Mean tumor selectivity index (WI38/HL60, MCF7, and MDA-MB-231) [4]: 1.36
- IC50 [5]: 4.77 ± 0.4 µM
